This passage reports Ki results from ChEMBL document CHEMBL2074241, “Characterization of binding properties to human P-glycoprotein: development of a [3H]verapamil radioligand-binding assay” (J Pharmacol Exp Ther, 1999).

The experiment addresses ATP-dependent translocase ABCB1 (Homo sapiens, UniProt P08183). The experiment is described as follows: TP_TRANSPORTER: inhibition of Verapamil binding in membranes from Vinblastine-induced Caco-2 cells. The class given is functional, cell membranes, Membrane.

Chain of ATP-dependent translocase ABCB1 (P08183 whole entry): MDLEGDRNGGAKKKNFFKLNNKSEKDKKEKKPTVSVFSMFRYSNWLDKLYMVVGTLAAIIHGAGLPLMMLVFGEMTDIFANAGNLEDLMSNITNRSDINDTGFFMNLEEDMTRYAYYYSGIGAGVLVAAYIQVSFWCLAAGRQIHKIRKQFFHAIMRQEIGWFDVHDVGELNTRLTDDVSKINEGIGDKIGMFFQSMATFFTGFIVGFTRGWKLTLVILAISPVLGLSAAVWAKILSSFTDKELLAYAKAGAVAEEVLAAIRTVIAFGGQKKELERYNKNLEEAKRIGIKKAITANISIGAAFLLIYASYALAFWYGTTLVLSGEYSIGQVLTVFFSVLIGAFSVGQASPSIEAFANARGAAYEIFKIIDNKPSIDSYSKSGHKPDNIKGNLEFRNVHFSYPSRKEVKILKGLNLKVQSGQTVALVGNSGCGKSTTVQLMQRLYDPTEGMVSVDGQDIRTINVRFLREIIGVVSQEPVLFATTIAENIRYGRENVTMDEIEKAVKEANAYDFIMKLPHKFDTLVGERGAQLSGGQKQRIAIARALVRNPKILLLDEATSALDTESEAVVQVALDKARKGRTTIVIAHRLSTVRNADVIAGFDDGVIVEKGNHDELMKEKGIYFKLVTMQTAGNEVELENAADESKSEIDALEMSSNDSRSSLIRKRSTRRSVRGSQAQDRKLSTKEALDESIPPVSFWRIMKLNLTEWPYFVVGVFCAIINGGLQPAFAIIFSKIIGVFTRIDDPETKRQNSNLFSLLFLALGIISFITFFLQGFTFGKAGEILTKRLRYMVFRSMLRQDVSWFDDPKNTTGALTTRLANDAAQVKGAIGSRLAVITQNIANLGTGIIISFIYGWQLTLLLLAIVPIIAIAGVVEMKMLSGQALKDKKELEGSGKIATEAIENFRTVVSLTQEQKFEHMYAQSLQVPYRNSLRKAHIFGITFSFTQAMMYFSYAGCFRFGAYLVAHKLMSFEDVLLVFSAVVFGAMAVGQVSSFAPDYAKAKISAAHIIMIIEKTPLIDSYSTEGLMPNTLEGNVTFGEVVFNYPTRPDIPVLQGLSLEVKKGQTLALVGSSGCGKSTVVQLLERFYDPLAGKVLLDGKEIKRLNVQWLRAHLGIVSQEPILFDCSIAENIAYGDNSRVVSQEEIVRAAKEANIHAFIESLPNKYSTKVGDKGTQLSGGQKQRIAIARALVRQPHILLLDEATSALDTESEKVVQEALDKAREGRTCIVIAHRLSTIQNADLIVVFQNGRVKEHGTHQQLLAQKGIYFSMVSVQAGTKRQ

Regarding `COC(=O)c1ccccc1-c1c2ccc(=N)cc-2oc2cc(N)ccc12` [RHODAMINE123], the Ki by setting is: (read-out: Ki1) 110 nM; (read-out: Ki2) 3400 nM.

Take `CC[C@]1(O)C[C@H]2CN(CCc3c([nH]c4ccccc34)[C@@](C(=O)OC)(c3cc4c(cc3OC)N(C=O)[C@H]3[C@@](O)(C(=O)OC)[C@H](OC(C)=O)[C@]5(CC)C=CCN6CC[C@]43[C@@H]65)C2)C1` [VINCRISTINE]: the Ki is 470 nM (read-out: Ki1) and 148000 nM (read-out: Ki2).
